# Key:
# Type in all cases: biochemical
# [1] = target: T1, recombinant human 17β-HSD1 (Homo sapiens, UniProt P14061); experiment: Inhibition of recombinant human 17β-HSD1; details: inhibitor 100 nM; 30 nM estrone, 1 mM NADPH, 30 min RT
# T1 construct: made in house; host or cells: Sd9 (Sf9) insect cells, baculovirus (Bac to Bac Expression System)
# T1 sequence (P14061 1-328): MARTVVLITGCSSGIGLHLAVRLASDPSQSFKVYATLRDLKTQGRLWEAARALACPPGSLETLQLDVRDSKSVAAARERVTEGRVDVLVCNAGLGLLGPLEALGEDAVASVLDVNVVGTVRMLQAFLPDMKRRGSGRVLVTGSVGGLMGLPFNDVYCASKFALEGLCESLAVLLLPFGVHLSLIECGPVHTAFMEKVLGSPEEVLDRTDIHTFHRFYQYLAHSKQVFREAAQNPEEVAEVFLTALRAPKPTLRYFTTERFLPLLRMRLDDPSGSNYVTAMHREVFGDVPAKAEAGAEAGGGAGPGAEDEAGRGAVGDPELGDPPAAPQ
# Method: 17β-HSD1 production and isolation: Recombinant baculovirus was generated by the “Bac to Bac Expression System” (Invitrogen). Recombinant bacmid was transfected to Sd9 insect cells using “Cellfectin Reagent” (Invitrogen). 60 h later cells were harvested; the microsomal fraction was isolated as described by Puranen, T. J., Poutanen, M. H., Peltoketo, H. E., Vihko, P. T. and Vihko, R. K. (1994) Site-directed mutagenesis of the putative active site of human 17 β-hydroxysteroid dehydrogenase type 1. Biochem. J. 304: 289-293. Aliquots were stored frozen until determination of enzymatic activity.
# Assay—Inhibition of recombinant human 17β-HSD1: Recombinant protein (1 μg/ml) was incubated in 20 mM KH2PO4 pH 7.4 with 30 nM estrone (including 800 000 cpm/ml of ^3H-estrone) and 1 mM NADPH for 30 min at RT, in the presence of the potential inhibitor at concentrations 1 μM or 0.1 μM. Inhibitor stock solutions were prepared in DMSO. Final concentration of DMSO was adjusted to 1% in all samples. The enzyme reaction was stopped by addition of 10% trichloroacetic acid (final concentration). Samples were centrifuged in a microtiter plate at 4000 rpm for 10 min. Supernatants were applied to reverse phase HPLC on a Waters Symmetry C18 column, equipped with a Waters Sentry Guard column. Isocratic HPLC runs were performed at RT at a flow rate of 1 ml/min in acetonitrile:water 48:52 as running solvent. Radioactivity was monitored in the eluate by a Scintillation Analyzer. Total radioactivity for estrone and estradiol were determined in each sample and percent conversion of estrone to estradiol was calculated according to the following formula:
# (§1) [formula] Percent inhibition was calculated flowingly: % inhibition=100−% conversion
# [2] = target: T2, recombinant human 17β-HSD2 (Homo sapiens, UniProt P37059); experiment: Inhibition of recombinant human 17β-HSD2; details: inhibitor 1 μM; 50 nM estradiol, 1 mM NADH, 30 min RT
# T2 construct: made in house; host or cells: Sd9 (Sf9) insect cells, baculovirus (Bac to Bac Expression System)
# T2 sequence (P37059 1-387): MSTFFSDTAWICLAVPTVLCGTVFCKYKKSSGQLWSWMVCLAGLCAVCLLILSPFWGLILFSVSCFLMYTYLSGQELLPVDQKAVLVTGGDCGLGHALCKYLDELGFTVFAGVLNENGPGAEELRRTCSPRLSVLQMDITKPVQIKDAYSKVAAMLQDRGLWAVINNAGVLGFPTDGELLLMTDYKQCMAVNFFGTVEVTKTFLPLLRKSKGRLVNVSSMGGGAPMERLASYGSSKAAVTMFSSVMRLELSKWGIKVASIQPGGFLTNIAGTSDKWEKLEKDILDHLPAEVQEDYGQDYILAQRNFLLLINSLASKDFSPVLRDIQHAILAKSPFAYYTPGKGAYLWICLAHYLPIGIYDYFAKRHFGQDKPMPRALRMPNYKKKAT
# Method: 17β-HSD2 production and isolation: Similarly to 17β-HSD1 the Recombinant baculovirus was generated by the “Bac to Bac Expression System” (Invitrogen). Recombinant bacmid was transfected to Sd9 insect cells using “Cellfectin Reagent” (Invitrogen). 60 h later cells were harvested and supernatant were fractionated by the following protocol: • cells were dissolved into 40 ml of A-buffer (40 mM TRIS, pH 8.0, 20% glycerol, 20 μM NAD, 0.4 mM PMSF, 150 mM NaCl, 0.5% dodecyl-β-maltoside+protease inhibitor cocktail) • cells were sonicated • lysate was incubated on ice for 15 min • lysate was centrifuged 5000 rpm 15 min, +4° C. • centrifugation of the supernatant 180 000 g 30 min, +4° C. • pellet was dissolved into 8 ml of A-buffer • not resuspended material was removed by centrifugation 5000 rpm min, +4° C. • the clear supernatant was divided into 100 μl aliquots and were stored frozen until determination of enzymatic activity.
# The amount of 17β-HSD2 was analysed by immunoblotting and total protein concentration of each extract batch was determined.
# Assay—Inhibition of recombinant human 17β-HSD2: Recombinant protein (4 μg/ml) was incubated in 20 mM KH2PO4 pH 8.5 with 50 nM estradiol (including 800 000 cpm/ml of ^3H-estradiol) and 1 mM NADH for 30 min at RT, in the presence of the potential inhibitor at concentrations 1 μM or 0.1 μM. Inhibitor stock solutions were prepared in DMSO. Final concentration of DMSO was adjusted to 1% in all samples. The enzyme reaction was stopped by addition of 10% trichloroacetic acid (final concentration). Samples were centrifuged in a microtiter plate at 4000 rpm for 10 min. Supernatants were applied to reverse phase HPLC on a Waters Symmetry C18 column, equipped with a Waters Sentry Guard column. Isocratic HPLC runs were performed at RT at a flow rate of 1 ml/min in acetonitrile:water 48:52 as running solvent. Radioactivity was monitored in the eluate by a Scintillation Analyzer. Total radioactivity for estrone and estradiol were determined in each sample and percent conversion of estradiol to estrone was calculated according to the following formula:
# as §1
# [3] = system: HSD1 enzyme that is expressed in rabbit placenta tissue; experiment: Inhibition of E1 to E2 conversion in rabbit placenta tissue homogenate; details: inhibitor 100 nM, 30 nM estrone, 30 min
# Method: The assay is based on an enzymatic reaction where HSD1 enzyme that is expressed in rabbit placenta tissue converts its natural substance estrone (E1) to estradiol (E2) in the presence of a co-factor β-NADPH.
# Homogenization of rabbit placenta tissue: Weight a piece of the frozen tissue into a Precellys ck28 bead tube. Add buffer solution (20 mM KH2PO4 with 1 mM EDTA, pH 7,4) in 1:2 ratio (e.g. 300 mg of tissue:600 μl reaction buffer solution). Insert the bead tubes to homogenizer and homogenize 2×30 s. 6000 rpm. Centrifugated 5 min., 2600 rpm at +4° C. and collect supernatant. Aliquots of homogenate are stored in −80° C.
# Assay—Inhibition of E1 to E2 conversion in rabbit placenta tissue: The reaction takes place in a buffer solution (20 mM KH2PO4 with 1 mM EDTA, pH 7,4), including appropriate amount of rabbit placenta homogenate, co-factor (1 mM β-NADPH), Substrate (30 nM estrone), labelled substrate as tracer (5 nM [^3H]-estrone). During a 30-minute incubation part of the estrone is converted to estradiol. The reaction is stopped by lowering the pH to 1 with 10% trichloro acetic acid (TCA). The substrate and conversion products are analyzed by HPLC and a Scintillation counter analyzer. Total radioactivity for estrone and estradiol were determined in each sample and percent conversion of estrone to estradiol was calculated according to the following formula:
# Percent inhibition was calculated flowingly: % inhibition=100−% conversion.
Structure (SMILES),inhibition at 0.1 µM [1],inhibition at 1 µM [2],Rabbit placenta inhibition % @100 nM [3]
"C[C@]12CCC3c4cccc(F)c4CCC3C1[C@H](CCC(=O)NC1COC1)C/C2=N\O (stereo partly drawn) [Compound 10, 3-((13S,15R,E)-4-fluoro-17-(hydroxyimino)-13-methyl-7,8,9,11,12,13,14,15,16,17-decahydro-6H-cyclopenta[a]phenanthren-15-yl)-N-(oxetan-3-yl)propanamide]",30%,5%,18%
"CN(C(=O)CC[C@@H]1C/C(=N\O)[C@@]2(C)CCC3c4cccc(F)c4CCC3C12)C1COC1 (stereo partly drawn) [Compound 12, 3-((13S,15R,E)-4-fluoro-17-(hydroxyimino)-13-methyl-7,8,9,11,12,13,14,15,16,17-decahydro-6H-cyclopenta[a]phenanthren-15-yl)-N-methyl-(oxetan-3-yl)propanamide]",73%,2%,
"C[C@]12CCC3c4cccc(F)c4CCC3C1[C@H](CCC(=O)N1CCCC1)C/C2=N\O (stereo partly drawn) [Compound 14, 3-((13S,15R,E)-4-fluoro-17-(hydroxyimino)-13-methyl-7,8,9,11,12,13,14,15,16,17-decahydro-6H-cyclopenta[a]phenanthren-15-yl)-1-(pyrrolidin-1-yl)propan-1-one]",53%,4%,14%
"Cc1ccc(NC(=O)CC[C@@H]2C/C(=N\O)[C@@]3(C)CCC4c5cccc(F)c5CCC4C23)nn1 (stereo partly drawn) [Compound 16, 3-((13S,15R,E)-4-fluoro-17-(hydroxyimino)-13-methyl-7,8,9,11,12,13,14,15,16,17-decahydro-6H-cyclopenta[a]phenanthren-15-yl)-N-(6-methylpyridazin-3-yl) propanamide]",79%,9%,81%
"C[C@]12CCC3c4cccc(F)c4CCC3C1[C@H](CCC(=O)Nc1nncs1)C/C2=N\O (stereo partly drawn) [Compound 18, 3-((13S,15R,E)-4-fluoro-17-(hydroxyimino)-13-methyl-7,8,9,11,12,13,14,15,16,17-decahydro-6H-cyclopenta[a]phenanthren-15-yl)-N-(1,3,4-thiadiazol-2-yl)propanamide]",68%,14%,62%
"CCN(CC)C(=O)CC[C@@H]1C/C(=N\O)[C@@]2(C)CCC3c4cccc(F)c4CCC3C12 (stereo partly drawn) [Compound 24, N,N-diethyl-3-((13S,15R,E)-4-fluoro-17-(hydroxyimino)-13-methyl-7,8,9,11,12,13,14,15,16,17-decahydro-6H-cyclopenta[a]phenanthren-15-yl)propanamide]",85%,12%,18%
"C[C@]12CCC3c4ccc(F)cc4CCC3C1[C@H](CCC(=O)Nc1ccc(F)cn1)C/C2=N\O (stereo partly drawn) [Compound 26, 3-((13S,15R,E)-3-fluoro-17-(hydroxyimino)-13-methyl-7,8,9,11,12,13,14,15,16,17-decahydro-6H-cyclopenta[a]phenanthren-15-yl)-N-(5-fluoropyridin-2-yl)propanamide]",49%,8%,10%
"C[C@]12CCC3c4ccc(F)cc4CCC3C1[C@H](CCC(=O)Nc1cccnn1)C/C2=N\O (stereo partly drawn) [Compound 34, 3-((13S,15R,E)-3-fluoro-17-(hydroxyimino)-13-methyl-7,8,9,11,12,13,14,15,16,17-decahydro-6H-cyclopenta[a]phenanthren-15-yl)-N-(pyridazin-3-yl)propanamide]",23%,9%,
"C[C@]12CCC3c4ccc(F)cc4CCC3C1[C@H](CCC(=O)Nc1nncs1)C/C2=N\O (stereo partly drawn) [Compound 38, 3-((13S,15R,E)-3-fluoro-17-(hydroxyimino)-13-methyl-7,8,9,11,12,13,14,15,16,17-decahydro-6H-cyclopenta[a]phenanthren-15-yl)-N-(1,3,4-thiadiazol-2-yl)propanamide]",21%,3%,
"C[C@]12CCC3c4cccc(F)c4CCC3C1[C@H](CCC(=O)Nc1ccccn1)C/C2=N\O (stereo partly drawn) [Compound 138, 3-((13S,15R,E)-4-fluoro-17-(hydroxyimino)-13-methyl-7,8,9,11,12,13,14,15,16,17-decahydro-6H-cyclopenta[a]phenanthren-15-yl)-N-(pyridin-2-yl)propanamide]",89%,,36%
"C[C@]12CCC3c4cccc(F)c4CCC3C1[C@H](CCC(=O)Nc1cc3c([nH]c1=O)CCCC3)C/C2=N\O (stereo partly drawn) [Compound 178, 3-((13S,15R,E)-4-fluoro-17-(hydroxyimino)-13-methyl-7,8,9,11,12,13,14,15,16,17-decahydro-6H-cyclopenta[a]phenanthren-15-yl)-N-(2-oxo-12,5,6,7,8-hexahydroguinolin-3-yl)propanamide]",95%,9%,

# Reference: US20240309043A1, “THERAPEUTICALLY ACTIVE STEROIDAL DERIVATIVES” (Organon R&D Finland Ltd., priority 2017, published 2024)
